# Counter-ions that a name gives are not always drawn.
# How the values were obtained:
# AMPKα = experiment: Measurement of AMPK activation effect (AMPKα Thr172 phosphorylation immunoassay) in MCF7 cells; type: cell-based, human; conditions: 24 hours; for AMPK activation effect at 10 μM (%) / AMPK activation effect at 50 μM (%): relative to untreated cells; for AMPK activation effect AC150: concentration at which AMPK activation reached 150%
# Method: MCF7 cells derived from human breast cancer cells (commercially available from the Korean Cell Line Bank) were used, and the AMPK activation effect of the biguanide derivative was confirmed using an AMPKα immunoassay kit (Invitrogen, Catalog No. KHO0651).
# MCF7 cells were cultured in a DMEM medium supplemented with 10% fetal bovine serum. Thereafter, the cultured MCF7 cells were put into a 6-well plate with approximately 5×10^5 cells per well and cultured in an incubator supplied with 5% CO2. Culture media were treated with the derivatives synthesized in the examples at contents of 5, 10 and 50 μM, and then cultured for 24 hours. Metformin hydrochloride was used as the control, and the culture media were treated with 0.05, 0.5, 1, 2, 5 and 10 mM metformin hydrochloride, and then tested in the same manner as described in the derivatives synthesized in the examples. Subsequently, the cells were lysed according to a method presented in the operation manual of the AMPKα immunoassay kit, and 20 μg of a cell lysate was then yielded through protein assay. Thereafter, the AMPK activation effect was obtained by determining the degree of phosphorylation of 172nd threonine residue (Thr172) of the AMPKα from the cell lysate according to the method presented in the operation manual of the AMPKα immunoassay kit. […] A curve graph showing AMPK activation according to the concentration of the treated compounds was plotted based on the obtained AMPKα activation results, the concentration (activation concentration 150, AC150) value of the compound whose AMPK activation reached 150% was calculated using a GraphPad Prism 5.0 program, and the degrees of AMPK activation were obtained when concentrations of the treated biguanide derivatives were 10 μM and 50 μM and the metformin hydrochloride was 50 μM
# HCT116 cells = experiment: Measurement of effect of inhibiting cancer cell proliferation (MTT); type: cell-based, human; conditions: for inhibition at 100 µM: HCT-116, 100 μM, read-out: Cell Growth Inhibition (%) at 100 μM
# From the text: HCT116 cells derived from human colorectal cancer (commercially available from the Korean Cell Line Bank) were used, and the effect of inhibiting cancer cell proliferation of the biguanide derivative was confirmed by measuring the concentration value (cell growth inhibition concentration, GIC50) at which cell growth was inhibited by 50% using a 3-(4,5-dimethylthiazol-2-yl)-2,5-diphenyltetrazolium bromide (MTT) reagent.
# First, HCT116 cells were put on a 96-well plate and cultured in a DMEM medium containing 10% fetal bovine serum for 16 hours so that the cellcount in each well was approximately 5,000. Subsequently, to obtain the GIC50 value of each compound, culture media were treated with 100 μM, 25 μM, 6.25 μM, 1.56 μM or 0.39 μM of the compound, and then cultured for 48 hours. Metformin hydrochloride was used as the control, and the culture media were treated with 25, 12.5, 2.5, 0.5, 0.1 mM metformin hydrochloride, and then tested in the same manner as described in the derivatives synthesized in the examples. In order to determine whether the cells survived after treatment with the compounds, MTT was added to the culture media which were then cultured for another 3 hours. Formed formazane crystals were dissolved using dimethyl sulfoxide (DMSO), and the absorbance of the resulting solution was measured at 560 nm. After the 48-hour culture, […] was indicated as cell viability (%) according to each treated concentration. A cell viability curve graph was plotted and the concentration (GIC50) value of the compound at which the growth was inhibited by 50% was calculated to confirm the inhibition effect of cancer cell proliferation. Also, the cell growth viability (%) when the concentration of the treated biguanide derivative and the metformin hydrochloride as the control were 100 μM was shown.
melting point [°C],"GI50 (HCT116 cells; Homo sapiens, HCT-116, 48 h) [µM]",SMILES,AMPK activation effect at 10 μM (%) (AMPKα),AMPK activation effect AC150 (AMPKα) [µM],"inhibition at 100 µM (HCT116 cells; Homo sapiens, 48 hours) [%]",AMPK activation effect at 50 μM (%) (AMPKα),"Cell Growth Inhibition (%) at 100 μM (HCT116 cells; 100 μM, 48 hours) [%]",GI50 (HCT116 cells; 48 hours) [µM]
263 to 264,7,"Cl.N=C(NC(=N)N1CCCCC1)Nc1cccc(Br)c1 [Example 7, N1-piperidine-N5-(3-bromo)phenyl biguanide hydrochloride]",526,0.9,97.2,–,–,–
239 to 240,13.4,"Cc1cccc(NC(=N)NC(=N)N2CCCCC2)c1.Cl [Example 9, N1-piperidine-N5-(3-methyl)phenyl biguanide hydrochloride]",149,12.4,79.1,255,–,–
210 to 212,> 100,"Cl.N=C(NC(=N)N1CCCCC1)Nc1cccc(O)c1 [Example 11, N1-piperidine-N5-(3-hydroxy)phenyl biguanide hydrochloride]",127,>50,29.7,127,–,–
225 to 227,> 100,"Cl.N=C(NC(=N)N1CCCCC1)Nc1cccc(CO)c1 [Example 12, N1-piperidine-N5-(3-hydroxymethyl)phenyl biguanide hydrochloride]",107,>50,17.6,149,–,–
230 to 232,> 100,"COc1cccc(NC(=N)NC(=N)N2CCCCC2)c1.Cl [Example 13, N1-piperidine-N5-(3-methoxy)phenyl biguanide hydrochloride]",97,16.0,45.4,300,–,–
201 to 202,72.4,"Cl.N=C(NC(=N)N1CCCCC1)Nc1cccc(F)c1 [Example 16, N1-piperidine-N5-(3-fluoro)phenyl biguanide hydrochloride]",–,9.9,67.2,378,–,–
260 to 261,48.2,"Cl.N=C(NC(=N)N1CCCC1)Nc1ccc(Cl)cc1 [Example 17, N1-pyrrolidine-N5-(4-chloro)phenyl biguanide hydrochloride]",167,8.4,97.4,512,–,–
170 to 172,55.9,"Cl.N=C(NC(=N)N1CCCC1)Nc1cccc(Cl)c1 [Example 19, N1-pyrrolidine-N5-(3-chloro)phenyl biguanide hydrochloride]",176,4.4,74,586,–,–

# The remaining lines, values behind:
SMILES,melting point [°C],"GI50 (HCT116 cells; Homo sapiens, HCT-116, 48 h) [µM]",AMPK activation effect at 10 μM (%) (AMPKα),AMPK activation effect AC150 (AMPKα) [µM],"inhibition at 100 µM (HCT116 cells; Homo sapiens, 48 hours) [%]",AMPK activation effect at 50 μM (%) (AMPKα),"Cell Growth Inhibition (%) at 100 μM (HCT116 cells; 100 μM, 48 hours) [%]",GI50 (HCT116 cells; 48 hours) [µM]
"N=C(NC(=N)N1CCCCC1)Nc1ccc(C(F)(F)F)cc1 (as salt: acetate) [Example 71, N1-piperidine-N5-(4-trifluoromethyl)phenyl biguanide acetate]",198 to 200,–,–,–,–,–,–,–
"N=C(NC(=N)N1CCCCC1)Nc1ccc(OC(F)(F)F)cc1 (as salt: acetate) [Example 73, N1-piperidine-N5-(4-trifluoromethoxy)phenyl biguanide acetate]",200 to 202,–,–,–,–,–,–,–
"N=C(NC(=N)N1CCCC1)Nc1ccc(C(F)(F)F)c(F)c1 (as salt: acetate) [Example 74, N1-pyrrolidine-N5-(3-fluoro-4-trifluoromethyl)phenyl biguanide acetate]",204 to 205,–,–,–,–,–,–,–
"N=C(NC(=N)N1CCCCC1)Nc1ccc(C(F)(F)F)c(F)c1 (as salt: acetate) [Example 75, N1-piperidine-N5-(3-fluoro-4-trifluoromethyl)phenyl biguanide acetate]",206 to 208,–,–,–,–,–,–,–
"N=C(NC(=N)N1CCCC1)Nc1ccc(OC(F)(F)F)c(F)c1 (as salt: acetate) [Example 76, N1-pyrrolidine-N5-(3-fluoro-4-trifluoromethoxy)phenyl biguanide acetate]",203 to 205,–,–,–,–,–,–,–
"N=C(NC(=N)N1CCCCC1)Nc1ccc(OC(F)(F)F)c(F)c1 (as salt: acetate) [Example 77, N1-piperidine-N5-(3-fluoro-4-trifluoromethoxy)phenyl biguanide acetate]",202 to 204,–,–,–,–,–,–,–
"Cl.N=C(NC(=N)N1CCCCC1)Nc1ccccc1 [Example 8, N1-piperidine-N5-phenyl biguanide hydrochloride]",204 to 206,56.8,–,10.1,77.6,347,–,–
"CCc1cccc(NC(=N)NC(=N)N2CCCCC2)c1.Cl [Example 10, N1-piperidine-N5-(3-ethyl)phenyl biguanide hydrochloride]",225 to 227,27.3,178,7.3,97.4,598,–,–
"Cl.N=C(NC(=N)N1CCCCC1)Nc1ccc(F)cc1 [Example 14, N1-piperidine-N5-(4-fluoro)phenyl biguanide hydrochloride]",269 to 270,> 100,204,4.0,49.7,429,–,–
"Cl.N=C(NC(=N)N1CCCCC1)Nc1ccccc1F [Example 15, N1-piperidine-N5-(2-fluoro)phenyl biguanide hydrochloride]",155 to 157,> 100,–,>50,39.5,100,–,–
"Cl.N=C(NC(=N)N1CCCCC1)Nc1ccc(Cl)cc1 [Example 18, N1-piperidine-N5-(4-chloro)phenyl biguanide hydrochloride]",275 to 276,17,281,3.4,97.7,–,–,–
"Cl.N=C(NC(=N)N1CCCCC1)Nc1cccc(OC(F)F)c1 [Example 30, N1-piperidine-N5-(3-difluoromethoxy)phenyl biguanide hydrochloride]",–,–,187,6.4,–,636,97.9,33.7
"Cl.N=C(NC(=N)N1CCCCC1)Nc1ccc(S(=O)(=O)O)cc1 [Example 42, N1-piperidine-N5-(4-sulfonic acid)phenyl biguanide hydrochloride]",–,> 100,68,>50,23.2,97,–,–
"Cl.N=C(NC(=N)N1CCCCC1)Nc1ccc(S(N)(=O)=O)cc1 [Example 44, N1-piperidine-N5-(4-sulfamoyl)phenyl biguanide hydrochloride]",–,> 100,119,>50,32.6,114,–,–
"Cl.N=C(NC(=N)N1CCCC1)Nc1ccc(OC(F)(F)F)c(Cl)c1 [Example 56, N1-pyrrolidine-N5-(3-chloro-4-trifluoromethoxy)phenyl biguanide hydrochloride]",–,4.6,367,2.0,101,–,–,–

# Reference: patent US9540325B2, “N1-cyclic amine-N5-substituted phenyl biguanide derivatives, methods of preparing the same and pharmaceutical composition comprising the same” (Immunomet Therapeutics, Inc., priority 2011, dated 2017)
